Here are results for 24 compounds from BindingDB's records for doi:10.1124/jpet.102.038075 (Nih, 2002).

Assay [1] has as its target T1, Vasoactive intestinal polypeptide receptor 1 (Homo sapiens, UniProt P32241).
T1 sequence (P32241 whole entry): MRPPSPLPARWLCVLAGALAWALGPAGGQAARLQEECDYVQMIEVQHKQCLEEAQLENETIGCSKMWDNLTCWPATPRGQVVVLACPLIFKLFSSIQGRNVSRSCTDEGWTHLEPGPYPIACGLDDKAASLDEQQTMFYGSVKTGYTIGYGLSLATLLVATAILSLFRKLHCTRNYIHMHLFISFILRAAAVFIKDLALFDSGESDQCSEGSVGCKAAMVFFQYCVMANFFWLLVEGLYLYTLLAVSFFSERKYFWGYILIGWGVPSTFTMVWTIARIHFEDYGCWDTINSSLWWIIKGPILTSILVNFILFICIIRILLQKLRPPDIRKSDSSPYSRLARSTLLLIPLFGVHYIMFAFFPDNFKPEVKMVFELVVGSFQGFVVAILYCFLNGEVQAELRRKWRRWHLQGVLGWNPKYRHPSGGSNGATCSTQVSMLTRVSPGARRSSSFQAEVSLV

The target in assay [2] is T2, Vasoactive intestinal polypeptide receptor 2 (Homo sapiens, UniProt P41587).
T2 sequence (P41587 whole entry): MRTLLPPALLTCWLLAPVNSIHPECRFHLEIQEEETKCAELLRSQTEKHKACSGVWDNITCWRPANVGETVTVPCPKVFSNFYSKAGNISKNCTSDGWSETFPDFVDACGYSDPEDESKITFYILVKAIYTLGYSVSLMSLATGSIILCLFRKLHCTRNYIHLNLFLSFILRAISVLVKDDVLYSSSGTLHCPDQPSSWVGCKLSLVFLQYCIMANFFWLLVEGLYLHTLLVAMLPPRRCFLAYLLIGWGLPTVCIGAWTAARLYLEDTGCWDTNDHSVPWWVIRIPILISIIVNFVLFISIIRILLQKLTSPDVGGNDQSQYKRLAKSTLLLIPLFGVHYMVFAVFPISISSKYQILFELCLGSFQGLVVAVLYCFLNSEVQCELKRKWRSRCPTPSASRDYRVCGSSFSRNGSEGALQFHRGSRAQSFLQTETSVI

Assay [3] addresses T3, Vasoactive intestinal polypeptide receptor 2 (Rattus norvegicus, UniProt P35000).
T3 sequence (P35000 whole entry): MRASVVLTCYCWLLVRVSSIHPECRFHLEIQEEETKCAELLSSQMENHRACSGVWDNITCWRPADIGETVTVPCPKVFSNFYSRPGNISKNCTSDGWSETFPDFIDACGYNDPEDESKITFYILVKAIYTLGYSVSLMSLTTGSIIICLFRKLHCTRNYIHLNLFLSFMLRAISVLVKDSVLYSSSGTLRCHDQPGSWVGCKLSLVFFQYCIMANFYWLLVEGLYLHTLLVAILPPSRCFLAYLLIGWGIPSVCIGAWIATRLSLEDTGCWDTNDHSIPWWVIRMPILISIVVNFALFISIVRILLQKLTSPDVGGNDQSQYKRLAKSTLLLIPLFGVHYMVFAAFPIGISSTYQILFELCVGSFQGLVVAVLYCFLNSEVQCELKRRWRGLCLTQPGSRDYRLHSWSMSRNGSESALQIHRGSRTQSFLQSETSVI

pKi: −log10 of the molar value. “And” between values parts separate entries of the source, which are not always exact repeats. Identical values can stand only once. Bridge positions count the residues as written; N and C are the ends. Square brackets hold non-standard residues; d marks the D form. Peptide text beside a SMILES is read from it. Nle = CCCC[C@H](N)C(=O)O

Regarding `CCCC[C@H](NC(=O)[C@H](CCC(N)=O)NC(=O)[C@H](CCCCN)NC(=O)[C@H](CCCNC(=N)N)NC(=O)[C@H](CC(C)C)NC(=O)[C@H](CCCCN)NC(=O)[C@@H](NC(=O)[C@H](Cc1ccc(O)cc1)NC(=O)[C@H](CC(N)=O)NC(=O)[C@H](CCC(=O)O)NC(=O)[C@@H](NC(=O)[C@H](Cc1ccccc1)NC(=O)[C@@H](NC(=O)[C@H](C)NC(=O)[C@H](CC(=O)O)NC(=O)[C@H](CO)NC(=O)[C@H](Cc1c[nH]cn1)NC(C)=O)C(C)C)[C@@H](C)O)[C@@H](C)O)C(=O)N[C@@H](C)C(=O)N[C@@H](C)C(=O)N[C@@H](CCCCN)C(=O)N[C@H]1CCCCNC(=O)C[C@@H](C(=O)N[C@@H](CC(C)C)C(=O)N[C@@H](CCCCN)C(=O)N[C@@H](CCCCN)C(=O)NCC(=O)NCC(=O)N[C@H](C(N)=O)[C@@H](C)O)NC(=O)[C@H](CC(N)=O)NC(=O)[C@H](CC(C)C)NC(=O)[C@H](Cc2ccc(O)cc2)NC1=O` [Ac-L-His-L-Ser-L-Asp-L-Ala-L-Val-L-Phe-L-Thr-L-Glu-L-Asn-L-Tyr-L-Thr-L-Lys-L-Leu-L-Arg-L-Lys-L-Gln-L-Nle-L-Ala-L-Ala-L-Lys-L-Lys(1)-L-Tyr-L-Leu-L-Asn-L-Asp(1)-L-Leu-L-Lys-L-Lys-Gly-Gly-L-Thr-NH2] (Ac-HSDAVFTENYTKLRKQ[Nle]AAKKYLNDLKKGGT-NH2; lactam 21-25), the pKi was 5.92 and 5.99 in assay [1]; 8.68 and 7.80 and 8.41 in assay [2].

Turning to `CC[C@H](C)[C@H](NC(=O)[C@H](CO)NC(=O)[C@H](CC(N)=O)NC(=O)[C@H](CC(C)C)NC(=O)[C@H](Cc1ccc(O)cc1)NC(=O)[C@H](CCCCN)NC(=O)[C@H](CCCCN)NC(=O)[C@@H](NC(=O)[C@H](C)NC(=O)[C@H](CCSC)NC(=O)[C@H](CCC(N)=O)NC(=O)[C@H](CCCCN)NC(=O)[C@H](CCCN=C(N)N)NC(=O)[C@H](CC(C)C)NC(=O)[C@H](CCCN=C(N)N)NC(=O)[C@@H](NC(=O)[C@H](Cc1ccc(O)cc1)NC(=O)[C@H](CC(N)=O)NC(=O)[C@H](CC(=O)O)NC(=O)[C@H](C)NC(=O)[C@H](Cc1ccccc1)NC(=O)[C@@H](NC(=O)[C@H](C)NC(=O)[C@H](CC(=O)O)NC(=O)[C@H](CO)NC(=O)[C@@H](N)Cc1cnc[nH]1)C(C)C)[C@@H](C)O)C(C)C)C(=O)N[C@@H](CC(C)C)C(=O)N[C@@H](CC(N)=O)C(N)=O` [VIP Ala7], the negative logarithm of the Ki (pKi) in assay [2] was 5.77 and 5.95 and 5.52; in assay [3] it was 6.86 and 6.20.

With “H-ASDAVFTDNYTRLRKQMAVKKYLNSILN-NH2 [VIP Ala1]”, the pKi in assay [2] was 6.68 and 6.60 and 6.25; in assay [3], 7.12 and 6.32.

For “H-HADAVFTDNYTRLRKQMAVKKYLNSILN-NH2 [VIP Ala2]”, the pKi in assay [2] was 8.47 and 8.46 and 8.68.

Regarding “H-HSAAVFTDNYTRLRKQMAVKKYLNSILN-NH2 [VIP Ala3]”, the pKi in assay [2] is 6.01 and 5.94 and 5.62; in assay [3], 6.86 and 6.26.

In the case of “H-HSDAAFTDNYTRLRKQMAVKKYLNSILN-NH2 [VIP Ala5]”, the pKi in assay [2] was 7.91 and 7.32 and 6.92; in assay [3] it was 7.88 and 7.64.

With “H-HSDAVFTANYTRLRKQMAVKKYLNSILN-NH2 [VIP Ala8]”, the pKi in assay [2] was 8.36 and 8.57 and 7.88.

Consider “H-HSDAVFTDAYTRLRKQMAVKKYLNSILN-NH2 [VIP Ala9]”, for which, in assay [2], the pKi is 8.37 and 8.49 and 8.22.

For the compound “H-HSDAVFTDNATRLRKQMAVKKYLNSILN-NH2 [VIP Ala10]”, the pKi was 5.52 in assay [2]; 6.14 and 5.57 in assay [3].

Take “H-HSDAVFTDNYTALRKQMAVKKYLNSILN-NH2 [VIP Ala12]”: the pKi was 6.48 and 6.17 and 6.54 in assay [2]; 7.60 and 6.60 in assay [3].

As to “H-HSDAVFTDNYTRARKQMAVKKYLNSILN-NH2 [VIP Ala13]”, in assay [2], the negative-log Ki (pKi) was 7.31 and 7.09 and 7.28.

Regarding “H-HSDAVFTDNYTRLAKQMAVKKYLNSILN-NH2 [VIP Ala14]”, the pKi in assay [2] was 7.32 and 6.96 and 6.78.

As to “H-HSDAVFTDNYTRLRAQMAVKKYLNSILN-NH2 [VIP Ala15]”, the negative logarithm of the Ki (pKi) in assay [2] is 7.72 and 7.39 and 7.42; in assay [3], 8.72 and 7.78.

Regarding “H-HSDAVFTDNYTRLRKQAAVKKYLNSILN-NH2 [VIP Ala17]”, the pKi in assay [3] was 8.64 and 8.30.

In the case of “H-HSDAVFTDNYTRLRKQMAAKKYLNSILN-NH2 [VIP Ala19]”, the pKi in assay [2] was 8.62 and 8.59 and 8.30; in assay [3] it was 9.37 and 8.47.

As to “H-HSDAVFTDNYTRLRKQMAVAKYLNSILN-NH2 [VIP Ala20]”, the pKi in assay [2] was 8.00 and 7.90 and 7.66.

For the compound “H-HSDAVFTDNYTRLRKQMAVKAYLNSILN-NH2 [VIP Ala21]”, the pKi in assay [2] was 8.09 and 7.77 and 7.90; in assay [3], 8.89 and 7.91.

Take “H-HSDAVFTDNYTRLRKQMAVKKALNSILN-NH2 [VIP Ala22]”: the pKi in assay [2] was 5.52; in assay [3], 6.12 and 5.52.

For “H-HSDAVFTDNYTRLRKQMAVKKYANSILN-NH2 [VIP Ala23]”, the pKi in assay [2] was 5.77 and 5.55 and 5.57; in assay [3], 6.96 and 6.01.

Take “H-HSDAVFTDNYTRLRKQMAVKKYLASILN-NH2 [VIP Ala24]”: the pKi is 8.39 and 7.85 and 7.73 in assay [2]; 9.40 and 8.49 in assay [3].

Regarding “H-HSDAVFTDNYTRLRKQMAVKKYLNSALN-NH2 [VIP Ala26]”, the pKi in assay [2] is 8.04 and 7.93 and 7.82 and 7.30 and 7.31 and 7.55.

Consider “H-HSDAVFTDNYTRLRKQMAVKKYLNSIAN-NH2 [VIP Ala27]”, for which, in assay [2], the pKi was 7.71 and 7.10 and 7.05.

As to “H-HSDAVFTDNYTRLRKQMAVKKYLNSILA-NH2 [VIP Ala28]”, in assay [2], the pKi was 7.46 and 7.68 and 7.57.

As for “H-HSDAVFTNSYRKVLKRLSARKLLQDIL-NH2 [NSC_0]”, the pKi in assay [1] was 8.77 and 8.11 and 8.05; in assay [2], 5.52.

Usually pKi stands for −log10 of the Ki, conventionally taken in molar units. Lower therefore signals a large Ki.
